The values that follow come from patent publication US7276339B2 (H. Lundbeck A/S, priority 1998, dated 2007).

“Also recorded” adds a separate entry of the source. Non-standard residues stand in square brackets, D forms with d. Residues, ends and D or L forms follow the SMILES beside them. No end group written: not given here. NMeF = CN[C@@H](Cc1ccccc1)C(=O)O

The target in test [1] is rat spinal cord membrane receptor. Nature of the test: [125I]D-Tyr-NPFF radioligand binding, rat spinal cord membranes. The conditions noted are these: competition of [125I]D-Tyr-NPFF binding; * = differs from NPFF1. The source says: The binding profile of rat NPFF1 was compared to that of rat spinal cord membranes. […] (See * Table 2).
Another test concerns the target NPFF receptors. The conditions noted are these: cited from earlier work; for inhibition of [125I](1DMe)Y8Fa binding: 10 μM.
Another test concerns the target T1, human NPFF1 receptor (Homo sapiens, UniProt Q9GZQ6).
T1 construct: To obtain a full-length hNPFF1 construct in the correct orientation; expressed in transfected cells; host or cells: HEK-293 (transient)
Nature of the test: [125I]D-Tyr-NPFF radioligand binding, HEK-293 cells expressing human NPFF1. Conditions: Table 3, read-out: pKi ± SEM, human NPFF1 (converted). The procedure:
(§1) Transfected cells from culture flasks are scraped into 5 ml of 20 mM Tris-HCl, 5 mM EDTA, pH 7.5, and lysed by sonication. The cell lysates are centrifuged at 1000 rpm for 5 min. at 4° C., and the supernatant is centrifuged at 30,000×g for 20 min. at 4° C. The pellet is suspended in binding buffer (50 mM Tris-HCl, 60 mM NaCl, 1 mM MgCl, 33 μM EDTA, 33 μM EGTA at pH 7.4 supplemented with 0.2% BSA, 2 μg/ml aprotinin, and 20 μM bestatin). Optimal membrane suspension dilutions, defined as the protein concentration required to bind less than 10% of the added radioligand, are added to 96-well polpropylene microtiter plates containing ^3H-labeled compound, unlabeled compounds, and binding buffer to a final volume of 250 μl. In equilibrium saturation binding assays membrane preparations are incubated in the presence of increasing concentrations of [^3H]-labeled compound. The binding affinities of the different compounds are determined in equilibrium competition binding assays, using [^125I]-labeled compound in the presence of ten to twelve different concentrations of the displacing ligands. Competition assay: 50 pM radioligand, 10-12 points. Binding reaction mixtures are incubated for 2 hr at 25° C., and the reaction stopped by filtration through a double layer of GF filters treated with 0.1% polyethyleneimine, using a cell harvester. Wash buffer: 50 mM Tris-HCl, 0.1% BSA. Radioactivity may be measured by scintillation counting and data are analyzed by a computerized non-linear regression program. Non-specific binding is defined as the amount of radioactivity remaining after incubation of membrane protein in the presence of 1 μM final concentration […]. Protein concentration may be measured by the Bradford method using Bio-Rad Reagent, with bovine serum albumin as a standard.
(§2) Additional pharmacological evaluation was done using 293 human embryonic kidney cells (HEK-293 cells) transiently expressing the genes encoding the human NPFF1, NPFF2, and rat NPFF1 receptors, as well as Cos-7 cells expressing the rat NPFF2 receptors.

For the next test, the target named is T2, human NPFF2 receptor (Homo sapiens, UniProt Q9Y5X5).
T2 construct: BO89, was determined to be a full length clone with no point mutations; expressed in transfected cells; host or cells: HEK-293 (transient)
T2 sequence (Q9Y5X5 103-522): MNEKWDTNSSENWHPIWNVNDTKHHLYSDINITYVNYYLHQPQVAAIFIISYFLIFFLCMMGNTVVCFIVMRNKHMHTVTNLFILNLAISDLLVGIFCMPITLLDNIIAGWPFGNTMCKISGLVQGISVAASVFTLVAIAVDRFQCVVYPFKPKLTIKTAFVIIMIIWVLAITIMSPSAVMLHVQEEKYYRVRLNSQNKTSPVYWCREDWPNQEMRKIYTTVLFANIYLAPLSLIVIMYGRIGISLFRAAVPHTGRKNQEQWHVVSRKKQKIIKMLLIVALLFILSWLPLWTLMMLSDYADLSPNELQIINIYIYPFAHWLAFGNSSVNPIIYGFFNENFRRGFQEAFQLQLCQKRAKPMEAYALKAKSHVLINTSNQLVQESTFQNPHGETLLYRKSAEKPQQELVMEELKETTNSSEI
Nature of the test: [125I]D-Tyr-NPFF radioligand binding, HEK-293 cells expressing human NPFF2. Conditions: for Ki: Table 3, HEK-293 cells, [125I]D-Tyr-NPFF, read-out: pKi ± SEM, human NPFF2 (converted). The procedure: as §1, §2

The target of another test is T3, rat NPFF2 receptor (Rattus norvegicus, UniProt Q9EQD2).
T3 construct: The full-length rat NPFF2 clone was amplified from rat spinal cord cDNA; expressed in transfected cells; host or cells: COS-7
T3 sequence (Q9EQD2 whole entry): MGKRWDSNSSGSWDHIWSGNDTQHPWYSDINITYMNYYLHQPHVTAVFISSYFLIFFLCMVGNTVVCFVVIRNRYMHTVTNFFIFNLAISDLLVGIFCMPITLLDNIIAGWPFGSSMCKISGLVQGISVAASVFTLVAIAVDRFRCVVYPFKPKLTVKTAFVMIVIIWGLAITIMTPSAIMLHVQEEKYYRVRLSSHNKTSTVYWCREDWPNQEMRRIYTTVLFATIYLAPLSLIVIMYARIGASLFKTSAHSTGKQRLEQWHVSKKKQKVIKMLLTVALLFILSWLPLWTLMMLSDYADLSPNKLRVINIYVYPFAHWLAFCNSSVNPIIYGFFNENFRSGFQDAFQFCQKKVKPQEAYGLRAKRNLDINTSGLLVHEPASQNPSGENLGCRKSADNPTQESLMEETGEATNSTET
Nature of the test: [125I]D-Tyr-NPFF radioligand binding, cloned rat NPFF2. Conditions: for Ki: Table 3, title HEK-293 cells (text: Cos-7), [125I]D-Tyr-NPFF, read-out: pKi ± SEM, rat NPFF2 (converted). The procedure: as §1, §2

In test [2] the target is T4, rat NPFF1 receptor (Rattus norvegicus, UniProt Q9EP86). Nature of the test: [125I]D-Tyr-NPFF radioligand binding, HEK-293 cells expressing rat NPFF1. Set-up: expressed in transfected cells. Conditions: Table 3, read-out: pKi ± SEM, rat NPFF1 (converted). The procedure:
as §1, §2

The test system of another test is anesthetized rats. Nature of the test: Distension-induced rhythmic contraction (DIRC) model of the micturition reflex in anesthetized rats. The test is classed as in vivo, rat. Conditions: i.v.; fPP 0.1 mg/kg. The procedure: The effects of compounds on the micturition reflex were assessed in the “distension-induced rhythmic contraction” (DIRC) model in rats. This model of the micturition reflex has been described in previous publications (e.g. 72, 73).
Female Sprague Dawley rats weighing approximately 300 g were anesthetized with subcutaneous urethane (1.2 g/kg). The trachea was cannulated with PE240 tubing to provide a clear airway throughout the experiment. A midline abdominal incision was made and the left and right ureters were isolated. The ureters were ligated distally (to prevent escape of fluids from the bladder) and cannulated proximally with PE10 tubing. The incision was closed using 4-0 silk sutures, leaving the PE10 lines routed to the exterior for the elimination of urine. The bladder was canulated via the transurethral route using PE50 tubing inserted 2.5 cm beyond the urethral opening. This cannula was secured to the tail using tape and connected to a pressure transducer. To prevent leakage from the bladder, the cannula was tied tightly to the exterior urethral opening using 4-0 silk.
To initiate the micturition reflex, the bladder was first emptied by applying pressure to the lower abdomen, and then filled with normal saline in 100 μl increments (maximum=2 ml) until spontaneous bladder contractions occurred (typically 20-40 mmHg at a rate of one contraction every 2 to 3 minutes. Once a regular rhythm was established, vehicle (saline) or test compounds were administered intravenously to examine their effects on bladder activity. The effect of a compound which inhibited the micturition reflex was expressed as its “disappearance time”, defined as the time between successive bladder contractions in the presence of the test compound minus the time between contractions before compound administration.

The target in test [3] is T4, rat NPFF1 receptor. Nature of the test: [125I]D-Tyr-NPFF radioligand binding, membranes of COS-7 cells transiently expressing cloned rat NPFF1. Also noted: expressed in transfected cells; host or cells: COS-7 (transient). The procedure: as §1, with “The pellet is suspended in binding buffer (50 mM Tris-HCl, 60 mM NaCl, 1 mM MgCl, 33 μM EDTA, 33 μM EGTA at pH 7.4 supplemented with 0.2% BSA, 2 μg/ml aprotinin, and 20 μM bestatin).” left out, “[…],” for “are added to 96-well polpropylene microtiter plates containing ^3H-labeled compound,”, “The binding affinities of the different compounds are determined in equilibrium competition binding assays, using [^125I]-labeled compound in the presence of ten to twelve different concentrations of the displacing ligands.” left out
Cos-7 cells transiently expressing the gene encoding the novel rat NPFF1 receptor were used for pharmacological evaluation.

Another test has as its target T5, NPFF1 (SNORF2) (Rattus norvegicus, UniProt Q9EP86).
T5 construct: linearized plasmids or PCR products containing the complete coding region of the genes; expressed in transfected cells; host or cells: Xenopus laevis oocytes injected with synthetic RNA (T7 transcripts)
As to the kind of experiment: Voltage-clamp electrophysiology, Xenopus oocytes injected with SNORF2 (NPFF1) and chimeric Gαq/z RNA. The conditions noted are these: 1 μM; oocytes with SNORF2 + Gαq/z; holding potential −80 mV. Format: cell-based. The procedure:
(§3) Oocytes were harvested from Xenopus laevis and injected with mRNA transcripts as previously described (Quick and Lester, 1994; Smith et al., 1997). […] Three to eight hours prior to recording, oocytes were injected with 500 pg Gαq/z mRNA in order to observe coupling to Ca^++ activated Cl^− currents. Dual electrode voltage clamp (Axon Instruments Inc.) was performed using 3 M KCl-filled glass microelectrodes having resistances of 1-2 Mohm. Unless otherwise specified, oocytes were voltage clamped at a holding potential of −80 mV. During recordings, oocytes were bathed in continuously flowing (1-3 ml/min) medium containing 96 mM NaCl, 2 mM KCl, 1.8 mM CaCl2, 1 mM MgCl2, and 5 mM HEPES, pH 7.5 (ND96). Drugs were applied either by local perfusion from a […] glass capillary tube fixed at a distance of 0.5 mm from the oocyte, or by switching from a series of gravity fed perfusion lines.
(§4) Heterologous expression of GPCRs in Xenopus oocytes has been widely used to determine the identity of signaling pathways activated by agonist stimulation (Gundersen et al., 1983; Takahashi et al., 1987). Activation of the phospholipase C (PLC) pathway is assayed by applying test compound in ND96 solution to oocytes previously injected with mRNA for the mammalian receptor and observing inward currents at a holding potential of −80 mV. The appearance of currents that reverse at −25 mV and display other properties of the Ca^++-activated Cl^− (chloride) channel is indicative of mammalian receptor-activation of PLC and release of IP3 and intracellular Ca^++.

The target in the next test is T6, NPFF2 (NPFF-like) (Homo sapiens, UniProt Q9Y5X5).
T6 construct: linearized plasmids or PCR products containing the complete coding region of the genes; expressed in transfected cells; host or cells: Xenopus laevis oocytes injected with mRNA from ligation PCR products or linearized BO89
T6 sequence (Q9Y5X5 103-522): as the sequence (Q9Y5X5 103-522) above
As to the kind of experiment: Voltage-clamp electrophysiology, Xenopus oocytes injected with NPFF-like (NPFF2) and chimeric Gαq/z RNA. The test is classed as cell-based. Conditions: 1 μM, holding potential −80 mV. The procedure:
For expression of NPFF2, mRNA transcripts were generated as described for NPFF1, using PCR products from ligation reactions or linearized DNA from BO89 as DNA templates. Oocytes were injected with 5-50 ng NPFF2 mRNA and incubated as previously described.
as §3, §4

T4 sequence (Q9EP86 whole entry): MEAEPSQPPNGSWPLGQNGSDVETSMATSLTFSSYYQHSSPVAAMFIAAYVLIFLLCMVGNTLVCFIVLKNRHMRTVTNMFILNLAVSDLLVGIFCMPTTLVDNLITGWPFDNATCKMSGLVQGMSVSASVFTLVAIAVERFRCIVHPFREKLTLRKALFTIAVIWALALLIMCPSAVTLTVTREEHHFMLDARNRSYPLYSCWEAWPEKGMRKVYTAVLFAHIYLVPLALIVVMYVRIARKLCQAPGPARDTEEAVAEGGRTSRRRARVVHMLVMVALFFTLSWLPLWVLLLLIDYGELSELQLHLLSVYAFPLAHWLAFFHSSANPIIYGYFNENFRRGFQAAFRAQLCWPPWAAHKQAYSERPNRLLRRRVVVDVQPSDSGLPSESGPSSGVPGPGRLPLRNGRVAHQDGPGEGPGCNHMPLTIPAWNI
T1 sequence (Q9GZQ6 whole entry): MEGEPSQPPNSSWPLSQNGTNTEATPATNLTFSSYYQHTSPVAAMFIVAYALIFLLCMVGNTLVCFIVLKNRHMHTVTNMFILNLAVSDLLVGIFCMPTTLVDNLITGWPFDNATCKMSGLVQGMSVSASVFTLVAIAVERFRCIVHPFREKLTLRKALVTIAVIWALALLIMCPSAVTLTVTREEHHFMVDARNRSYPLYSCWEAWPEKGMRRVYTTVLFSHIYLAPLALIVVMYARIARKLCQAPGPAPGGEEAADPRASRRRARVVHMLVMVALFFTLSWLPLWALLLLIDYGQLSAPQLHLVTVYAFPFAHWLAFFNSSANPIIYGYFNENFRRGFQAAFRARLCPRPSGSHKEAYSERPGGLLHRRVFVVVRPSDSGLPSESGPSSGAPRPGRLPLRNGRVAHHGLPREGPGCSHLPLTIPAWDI
T5 sequence (Q9EP86 whole entry): as the sequence (Q9EP86 whole entry) above

Consider `CC(C)C[C@H](NC(=O)[C@H](N)Cc1ccc(O)cc1)C(=O)N(C)[C@@H](Cc1ccccc1)C(=O)N[C@@H](CCC(N)=O)C(=O)N1CCC[C@H]1C(=O)N[C@@H](CCC(N)=O)C(=O)N[C@@H](CCCNC(=N)N)C(=O)N[C@@H](Cc1ccccc1)C(N)=O` [(D-Tyr^1-(NMe)Phe^3)NPFF] (H-[dY]L[NMeF]QPQRF-NH2; N-terminus assumed), for which, in [1], the “pKi for rat spinal cord membrane receptor binding, MEAN” value is “*9.724”. Also, the Ki on NPFF receptors (spinal cord membranes, read-out: Ki, inhibition of [125I](1DMe)Y8Fa binding) is 0.16 nM.
For the compound `CSCC[C@@H](NC(=O)[C@@H](N)Cc1ccccc1)C(=O)N[C@@H](CCCNC(=N)N)C(=O)N[C@@H](Cc1ccccc1)C(N)=O` [D-Met-FMRF amide], the Ki at human NPFF1 receptor was 251 nM; on human NPFF2 receptor, 398 nM; on rat NPFF2 receptor, 631 nM; on rat NPFF1 receptor [2], 631 nM.
As for `CN1CC[C@]23c4c5ccc(O)c4O[C@H]2[C@@H](O)C=C[C@H]3[C@H]1C5` [morphine], the “inhibition of [125I](1DMe)Y8Fa binding” value with NPFF receptors was “No inhibition”.
Consider `CSCC[C@H](NC(=O)[C@H](CC(C)C)NC(=O)CNC(=O)[C@H](Cc1ccccc1)NC(=O)[C@H](Cc1ccccc1)NC(=O)[C@H](CCC(N)=O)NC(=O)[C@H](CCC(N)=O)NC(=O)[C@@H]1CCCN1C(=O)[C@H](CCCCN)NC(=O)[C@@H]1CCCN1C(=O)[C@@H](N)CCCN=C(N)N)C(N)=O` [substance P], for which, in the test with NPFF receptors, the “inhibition of [125I](1DMe)Y8Fa binding” value was “No inhibition”.
Consider “APSEPHHPGDQATQDQLAQYYSDLYQYITFVTRPRF-NH2 (C-terminus assumed) [fPP]”, for which the “pKi for rat spinal cord membrane receptor binding, MEAN” value in test [1] is on record as “*9.118”. In addition, the “fold greater affinity for human NPFF2 compared to human NPFF1” value at human NPFF2 receptor (from competition binding pKi) came out at 77 fold. Besides, on rat NPFF2 receptor (from competition binding pKi), the “fold greater affinity for rat NPFF2 compared to rat NPFF1” value turned out to be 31 fold. In addition, the “effect on distension-induced rhythmic contractions of the bladder” value in the test on anesthetized rats is reported as “inhibited”. Also, at rat NPFF1 receptor [3] (competition of [125I]D-Tyr-NPFF binding, COS-7 membranes), the “pKi for cloned rat NPFF1 receptor binding in COS-7 cells, MEAN” value is 5.5. Also, on rat NPFF1 receptor [3] (up to 1 uM), the “displacement of [125I]D-Tyr-NPFF binding on the NPFF1 receptor” value is “did not displace”.
H-AGEGLSSPFWSLAAPQRF-NH2 [A18Fa]: the “pKi for rat spinal cord membrane receptor binding, MEAN” value in [1] was “*9.000”. In addition, the Ki at human NPFF1 receptor was 63.1 nM; at human NPFF2 receptor, 1.26 nM; on rat NPFF2 receptor, 6.31 nM; on rat NPFF1 receptor [2] it was 31.6 nM. Further, the inward current response result was “robust inward currents” on NPFF1 (SNORF2) and “activated similar inward currents” at NPFF2 (NPFF-like).
Consider NPY, for which, in the test with NPFF2 (NPFF-like), the inward current response entry is listed as “failed to activate; also recorded: no response”. Besides, the “inhibition of [125I](1DMe)Y8Fa binding” value in the test with NPFF receptors was “No inhibition”.
For the compound neurokinin A, in the test with NPFF2 (NPFF-like), the inward current response entry is listed as “failed to activate; also recorded: no response”.
As for “orexin A (QPLPDCCRQKTCSCRLYELLHGAGNHAAGILTL; ends and bridges not checked; cysteine pairing not given here; UniProt O43612 34-66, looked up)”, the inward current response result with NPFF2 (NPFF-like) is recorded as “failed to activate; also recorded: no response”.
